# Results taken from patent publication US20060278218A1, “Non-invasive restrained whole body plethysmography for measurement of airway function in conscious mice” (priority 2005, published 2006).
# “And” between values parts separate entries of the source, which are not always exact repeats. Identical values can stand only once. Marks after values point to notes of the source that are not given here.
# Experiments:
# Format in all cases: in vivo, mouse
# [1] = system: conscious mice; assay: Methacholine aerosol challenge in conscious mice, double chamber plethysmography (DCP); details: BALBc (pre-OVA) mice, n=8; provocative concentration increasing sRaw to 175% post-saline value; mean
# Protocol: The double chamber plethysmograph was purchased from a commercial source (PLY3351, Buxco Electronics Inc, Wilmington, N.C.). The techniques for measurement with this technique have been described previously (DeLorme, et al. and Flandre, et al.). The flow for each chamber (nasal and thoracic) of the DCP was calibrated separately by rapid injection of a known volume (0.5 mL) into the chamber; volume was matched by the integration of flow. The accuracy of calibration was checked before each test. The phase lag between the chambers was negligible (<0.01 msec up to 10 Hz). For DCP, mice were loaded into the rear of the thoracic chamber and pushed forward until the head protruded through a hole in a latex neck seal provided with the equipment. […] Computation of sRaw measured with DCP (hereinafter sRaw-DCP) followed protocols established by Pennock, et al. and later applied to mice by Flandre, et al, whereby the time lag (dT) between the thoracic and nasal flow at zero crossing (during transition between inspiration and expiration) was utilized as follows: sRaw−DCP=(Ti+Te)/(2π)×(Patm−47)×1.36 2×π×dT/(Ti+Te), Equation 2: where Ti and Te equal inspiratory and expiratory time (sec) and Patm atmospheric pressure (cm H2O). The peak dT was identified and 10 sequential breaths free from movement artifacts were measured for that period. […]
# [2] = system: conscious mice; assay: Methacholine aerosol challenge in conscious mice, restrained whole body plethysmography (RWBP); details: for sRaw-RWBP ED175: mean; for average sRaw: one C57BL/6 mouse
# From the text: The dynamic properties of the plethysmograph were studied by varying pressures in the chamber (John, J., B. Drefeldt, et al. (1994). “Dynamic properties of body plethysmographs and effects on physiological parameters.” J Appl Physiol 77(1): 152-9. (hereinafter John, et al.), incorporated herein by reference). A leak (3.2 sec to 36% peak pressure) was created by a Luer connector mounted in the wall of the box, which was attached to a length of tubing, a stopcock and needle (22 g, 2 cm). The leak resistance was measured to be 5.37 cm H2O/L/sec and inertance 0.029 s^2/mL. A step pressure created by (a) hammering gently the plunger of a syringe loaded to an expected volume (0.02 mL), and (b) balloon burst both peaked between 19-21 msec, with a thermal time constant (described by a single compartment) of 0.95 sec. Amplitude was examined as a function of input frequency using digitally controlled square and sinusoidal flows delivered with a piston-driven mouse ventilator (flexiVent, Scireq Corp, Montreal, Canada). Box pressure amplitude remained within 3% of the delivered volume (0.1 mL) from 1-10 Hz, and within 0.075% between 2 and 5 Hz, the range most relevant to breathing in conscious mice. Therefore the conditions were adiabatic across these frequencies. Time shifts between flow, delivered via the pneumotachograph within the box, and peak box pressure averaged less than 3 msec (range 1-6 msec) from 0.5-20 Hz generated using a broadband input generator (flexiVent, Scireq Corp). Pressure in the plethysmographic chamber was sampled differential pressure transducer 20 (TRD 5700, Buxco Electronics, Wilmington, N.C.) referenced to the atmospheric reference chamber 18 The pneumotachograph 52 (8431 Series, Hans Rudolph, Kansas City, Mo.) heated to 38-39° C. measured flow and flow-derived parameters. Data was sampled at 2500 Hz per channel using commercial hardware (Max1420 Buxco Electronics, PCI 6024E, National Instruments) and software (Biosystem XA version 2.9.4, Buxco Electronics, Inc). The pneumotachograph was calibrated by integration of the flow, injected as a known volume (0.5 mL). Box volume was calibrated by rapid injection of a known volume (0.1 mL) into the chamber between each mouse, and checked repeatedly using injections of varying volumes and quasi-sinusoidal inputs. Bias flow (0.5 L/min) was employed between recordings, and the box vented fully between methacholine challenges.
# FIGS. 9A-9D are box volume-flow plots for the experiments performed using an RWBP according to the invention. Primary waveforms (box volume, flow) are reviewed and period of peak responses based on EF50 are identified. These occurred regularly between 1.5-2.5 minutes after exposure to methacholine. FIGS. 9A-9D have a stripchart for pneumotachograph flow and plethysmographic volume. Below the stripcharts are corresponding X-Y plots of flow (Y-axis) and box volume shift (X-axis). A slope (θ) of the box volume-flow plot was measured using a protractor (accurate to 0.5 degrees) on the straightest possible segment between −1 to 1 mL/sec. Angles are measured at the transition from expiration to inspiration to minimize the contribution of heating and humidification to the box volume signal (see Agrawal K P). Gains were set to produce angles (tangents) between 40 and 75 degrees. Breaths with evidence of laryngeal braking are avoided. Specific airway resistance (sRaw) is computed from the plots as follows: sRaw=(1/tan θ)*(Patm−PH2O)*Cf*(Vbox−bwt mouse)/Vbox, Equation 1: where Patm is atmospheric pressure, PH2O is water vapor pressure, Cf is a scaling factor for X and Y axes, Vbox is volume of the outer chamber, and bwt mouse is the weight of the mouse in units of grams.
# Challenges were conducted at the same time of day (morning or afternoon) for each mouse. Ambient temperatures in the laboratory ranged from 21-23° C. and humidity ranged from 25-45%. Baseline recordings were obtained after 2 min acclimation to the chamber. […]
# [3] = system: anesthetized, tracheotomized mice; assay: Methacholine challenge in anesthetized mice using forced oscillation technique (FOT); details: for Raw ED175: provocative concentration increasing Raw-FOT to 175% baseline, mean
# Protocol: The methods for FOT have been previously described in Tomioka, S., J. H. Bates, et al. (2002). “Airway and tissue mechanics in a murine model of asthma: alveolar capsule vs. forced oscillations.” J Appl Physiol 93(1): 263-70. (hereinafter Tomioka, et al.), incorporated herein by reference. Mice were anesthetized with ketamine (50 mg/kg) and xylazine (5 mg/kg) (Butler Co, Dublin, Ohio) intra-peritoneally, and a tracheostomy performed with a 19 g cannula (Becton Dickinson and Company Franklin Lakes, N.Y.). Mice were paralyzed with pancuronium (1 mg/ml, Baxter Healthcare Corp. Irvine, Calif.). Supplemental xylazine and ketamine (½ doses) were provided every ½ hour. Ventilation was set at frequency of 200 BPM, VT 0.3 ml, positive end-expiratory pressure (PEEP) 3.0 cm H20, and oxygen was supplemented throughout. Repeated measurements were performed with a commercial data acquisition system for input impedance between 1-20 Hz (Quick Prime 3 analyzer, FlexiVent System, SCIREQ Corp, Montreal, Quebec). A constant phase model (Gomes, R. F., X. Shen, et al. (2000). “Comparative respiratory system mechanics in rodents.” J Appl Physiol 89(3): 908-16 (hereinafter Gomes, et al.)., incorporated herein by reference) was employed to obtain airway resistance Raw, tissue resistance coefficient Gti, and tissue elastance coefficient Hti.
# Aerosols were delivered directly into the tracheal cannula during lung inflation during mechanical ventilation (flexiVent, Scireq Corp, Montreal, Quebec). Ten second nebulization periods were used, followed immediately by a series (8-15) of measurements. Prior to each measurement of lung mechanics, the lung was inflated to total lung capacity (TLC) (30 cm H2O airway pressure). Forced oscillations during apnea (3 seconds in duration) were applied every 17 seconds for 5 minutes. Dosage ranges were pre-determined in pilot studies to evoke between 10 and >75% increase in airway resistance (Raw). Methacholine in C57 mice was delivered at 0 (saline), 4, 8, and 16 mg/mL, and in AJ we used 0, 2, 4, and 8 mg/mL. The concentration of methacholine that provoked an increase in Raw-FOT to 175% baseline (ED 175) was determined by log-linear interpolation as described above.
compound,measurement,setting,value
CC(=O)OC(C)C[N+](C)(C)C (centres unmarked) [methacholine],sRaw-DCP ED175,[1],7.1^a mg/mL
same,sRaw-RWBP ED175,"[2]; AJ mice, n=18, provocative concentration increasing sRaw to 175% post-saline value","4.49^a,b mg/mL"
same,sRaw-RWBP ED175,"[2]; BALBc (no OVA) mice, n=18, provocative concentration increasing sRaw to 175% post-saline value",10.9^a mg/mL
same,sRaw-RWBP ED175,"[2]; BALBc (post-OVA) mice, n=8, 48 hrs following allergen challenge in sensitized group","5.0 mg/mL and 5.0^a,c mg/mL"
same,sRaw-RWBP ED175,"[2]; BALBc (pre-OVA) mice, n=8, prior to sensitization and aerosol exposure to ovalbumin",9.2 mg/mL and 9.2^ mg/mL
same,sRaw-RWBP ED175,"[2]; C57 mice, n=18, provocative concentration increasing sRaw to 175% post-saline value",40.5^b mg/mL
same,change in tidal volume,"[2]; conscious C57, AJ and BALBc mice, any strain (FIG. 10C)",no change
same,change in sRaw-RWBP,"[2]; conscious C57, AJ and BALBc mice, dose response (FIG. 10A)",significant dose-dependent increase
same,change in respiratory frequency,"[2]; conscious C57, AJ and BALBc mice, dose response (FIG. 10B)",significant decrease
same,average sRaw,[2]; methacholine aerosol dose 10 mg/mL (FIG. 9B),0.75 cm·s
same,average sRaw,[2]; methacholine aerosol dose 50 mg/mL (FIG. 9C),0.86 cm·s
same,average sRaw,[2]; methacholine aerosol dose 100 mg/mL (FIG. 9D),1.61 cm·s
same,period of peak responses based on EF50 after exposure,[2]; time after exposure to methacholine,1.5 to 2.5 min
same,Raw ED175,"[3]; AJ mice, n=18",2.3^a mg/mL
same,Raw ED175,[3]; BALBc (pre-OVA) mice,9.48 mg/mL
same,Raw ED175,"[3]; C57 mice, n=18",8.3 mg/mL
same,change in Raw,"[3]; anesthetized, tracheotomized C57, AJ and BALBc mice, all 3 strains (FIG. 11)",dose-dependent increase
